From PubChem BioAssay (NCI)
Values joined by “and” are separate entries in the source; they are usually repeats but may differ in a detail not shown here. Identical values can stand only once.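 Cultured in 96-well plates, cells were exposed to test compound for 48 hours across five concentrations. At the GI50, growth is halved. Definition used: TGI = concentration required for complete inhibition of growth.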

How the values were obtained:
Assay in all cases: inhibition of tumour cell growth, NCI panel, 48 h
A498 renal = system: A498 renal
NCI-H522 lung = system: NCI-H522 lung
CCRF-CEM leukemia = system: CCRF-CEM leukemia
IGROV1 ovarian = system: IGROV1 ovarian
NCI-H460 lung = system: NCI-H460 lung
TK-10 renal = system: TK-10 renal
HS 578T breast = system: HS 578T breast
NCI/ADR-RES ovarian = system: NCI/ADR-RES ovarian
U251 CNS = system: U251 CNS
BT-549 breast = system: BT-549 breast
K-562 leukemia = system: K-562 leukemia
UO-31 renal = system: UO-31 renal
ACHN renal = system: ACHN renal
MDA-MB-231 breast = system: MDA-MB-231 breast
KM12 colon = system: KM12 colon
SW-620 colon = system: SW-620 colon
HL-60(TB) leukemia = system: HL-60(TB) leukemia
MOLT-4 leukemia = system: MOLT-4 leukemia
CAKI-1 renal = system: CAKI-1 renal
RPMI-8226 leukemia = system: RPMI-8226 leukemia
HOP-62 NSCLC = system: HOP-62 NSCLC
SK-OV-3 ovarian = system: SK-OV-3 ovarian
SK-MEL-5 melanoma = system: SK-MEL-5 melanoma
HT29 colon = system: HT29 colon
UACC-62 melanoma = system: UACC-62 melanoma
SNB-75 CNS = system: SNB-75 CNS
MDA-MB-435 = system: MDA-MB-435
OVCAR-3 ovarian = system: OVCAR-3 ovarian
MALME-3M melanoma = system: MALME-3M melanoma
DU-145 prostate = system: DU-145 prostate
SK-MEL-28 melanoma = system: SK-MEL-28 melanoma
SN12C renal = system: SN12C renal
HOP-92 NSCLC = system: HOP-92 NSCLC
MCF7 breast = system: MCF7 breast
SK-MEL-2 melanoma = system: SK-MEL-2 melanoma
OVCAR-8 ovarian = system: OVCAR-8 ovarian
PC-3 prostate = system: PC-3 prostate
SF-539 CNS = system: SF-539 CNS
SF-295 CNS = system: SF-295 CNS
RXF 393 renal = system: RXF 393 renal
COLO 205 colon = system: COLO 205 colon
EKVX NSCLC = system: EKVX NSCLC
NCI-H23 lung = system: NCI-H23 lung
SR leukemia = system: SR leukemia
LOX IMVI melanoma = system: LOX IMVI melanoma
UACC-257 melanoma = system: UACC-257 melanoma
HCT-15 colon = system: HCT-15 colon
A549 NSCLC = system: A549 NSCLC
SF-268 CNS = system: SF-268 CNS
SNB-19 CNS = system: SNB-19 CNS
HCC-2998 colon = system: HCC-2998 colon
OVCAR-5 ovarian = system: OVCAR-5 ovarian
OVCAR-4 ovarian = system: OVCAR-4 ovarian
HCT-116 colon = system: HCT-116 colon
M14 melanoma = system: M14 melanoma
NCI-H226 lung = system: NCI-H226 lung

In the case of `Cc1ccc2cnc(N)c(C#Cc3cncc(C(=O)Nc4ccc(CN5CCN(C)CC5)c(C(F)(F)F)c4)c3)c2c1`, the GI50 (A498 renal) is reported as 291 nM, the TGI (A498 renal) is reported as 1010 nM and the GI50 (NCI-H522 lung) is reported as 249 nM. It also gave a TGI (NCI-H522 lung) of 1020 nM, a GI50 (CCRF-CEM leukemia) of 197 nM and a TGI (CCRF-CEM leukemia) of 897 nM. For the same compound, the GI50 (IGROV1 ovarian) was 231 nM, the TGI (IGROV1 ovarian) was 869 nM and the GI50 (NCI-H460 lung) was 212 nM. The TGI (NCI-H460 lung) was 819 nM, the GI50 (TK-10 renal) was 642 nM and the TGI (TK-10 renal) was 1290 nM. For the same compound, the GI50 (HS 578T breast) was 274 nM, the TGI (HS 578T breast) was 1390 nM and the GI50 (NCI/ADR-RES ovarian) was 746 nM. It also gave a TGI (NCI/ADR-RES ovarian) of 2090 nM, a GI50 (U251 CNS) of 590 nM and a TGI (U251 CNS) of 1210 nM. It also gave a GI50 (BT-549 breast) of 991 nM, a TGI (BT-549 breast) of 1730 nM and a GI50 (K-562 leukemia) of 5 nM. The TGI (K-562 leukemia) was 619 nM, the GI50 (UO-31 renal) was 589 nM and the TGI (UO-31 renal) was 1220 nM. The GI50 (ACHN renal) was 252 nM, the TGI (ACHN renal) was 864 nM and the GI50 (MDA-MB-231 breast) was 186 nM. For the same compound, the TGI (MDA-MB-231 breast) was 839 nM, the GI50 (KM12 colon) was 5 nM and the TGI (KM12 colon) was 538 nM. The GI50 (SW-620 colon) was 131 nM, the TGI (SW-620 colon) was 540 nM and the GI50 (HL-60(TB) leukemia) was 212 nM. The TGI (HL-60(TB) leukemia) was 908 nM, the GI50 (MOLT-4 leukemia) was 205 nM and the TGI (MOLT-4 leukemia) was 936 nM. The GI50 (CAKI-1 renal) was 627 nM, the TGI (CAKI-1 renal) was 1270 nM and the GI50 (RPMI-8226 leukemia) was 693 nM. It also gave a TGI (RPMI-8226 leukemia) of 1970 nM, a GI50 (HOP-62 NSCLC) of 562 nM and a TGI (HOP-62 NSCLC) of 1190 nM. The GI50 (SK-OV-3 ovarian) was 869 nM, the TGI (SK-OV-3 ovarian) was 1630 nM and the GI50 (SK-MEL-5 melanoma) was 813 nM. For the same compound, the TGI (SK-MEL-5 melanoma) was 1510 nM, the GI50 (HT29 colon) was 106 nM and the TGI (HT29 colon) was 724 nM. For the same compound, the GI50 (UACC-62 melanoma) was 628 nM, the TGI (UACC-62 melanoma) was 1350 nM and the GI50 (SNB-75 CNS) was 716 nM. It also gave a TGI (SNB-75 CNS) of 1440 nM, a GI50 (MDA-MB-435) of 166 nM and a TGI (MDA-MB-435) of 805 nM. For the same compound, the GI50 (OVCAR-3 ovarian) was 633 nM, the TGI (OVCAR-3 ovarian) was 1290 nM and the GI50 (MALME-3M melanoma) was 145 nM. The TGI (MALME-3M melanoma) was 620 nM, the GI50 (DU-145 prostate) was 387 nM and the TGI (DU-145 prostate) was 1030 nM. For the same compound, the GI50 (SK-MEL-28 melanoma) was 616 nM, the TGI (SK-MEL-28 melanoma) was 1250 nM and the GI50 (SN12C renal) was 387 nM. The TGI (SN12C renal) was 1070 nM, the GI50 (HOP-92 NSCLC) was 77.1 nM and the TGI (HOP-92 NSCLC) was 446 nM. It also gave a GI50 (MCF7 breast) of 105 nM, a TGI (MCF7 breast) of 718 nM and a GI50 (SK-MEL-2 melanoma) of 660 nM. The TGI (SK-MEL-2 melanoma) was 1630 nM, the GI50 (OVCAR-8 ovarian) was 579 nM and the TGI (OVCAR-8 ovarian) was 1220 nM. For the same compound, the GI50 (PC-3 prostate) was 679 nM, the TGI (PC-3 prostate) was 1430 nM and the GI50 (SF-539 CNS) was 275 nM. The TGI (SF-539 CNS) was 877 nM, the GI50 (SF-295 CNS) was 828 nM and the TGI (SF-295 CNS) was 1570 nM. For the same compound, the GI50 (RXF 393 renal) was 632 nM, the TGI (RXF 393 renal) was 1290 nM and the GI50 (COLO 205 colon) was 134 nM. For the same compound, the TGI (COLO 205 colon) was 723 nM, the GI50 (EKVX NSCLC) was 317 nM and the TGI (EKVX NSCLC) was 1010 nM. For the same compound, the GI50 (NCI-H23 lung) was 492 nM, the TGI (NCI-H23 lung) was 1250 nM and the GI50 (SR leukemia) was 162 nM. It also gave a TGI (SR leukemia) of 1300 nM, a GI50 (LOX IMVI melanoma) of 289 nM and a TGI (LOX IMVI melanoma) of 934 nM. The GI50 (UACC-257 melanoma) was 605 nM, the TGI (UACC-257 melanoma) was 1380 nM and the GI50 (HCT-15 colon) was 174 nM. The TGI (HCT-15 colon) was 731 nM, the GI50 (A549 NSCLC) was 485 nM and the TGI (A549 NSCLC) was 1190 nM. The GI50 (SF-268 CNS) was 479 nM, the TGI (SF-268 CNS) was 1270 nM and the GI50 (SNB-19 CNS) was 786 nM. It also gave a TGI (SNB-19 CNS) of 1460 nM, a GI50 (HCC-2998 colon) of 582 nM and a TGI (HCC-2998 colon) of 1300 nM. It also gave a GI50 (OVCAR-5 ovarian) of 579 nM and a TGI (OVCAR-5 ovarian) of 1240 nM.

`CCCC(=O)Nc1cc(/C=C/C(=O)N2C[C@H]3C[C@@]34C2=CC(=O)c2[nH]cc(C)c24)n(C)c1` showed a TGI (A498 renal) of under 2.5 nM, a TGI (OVCAR-4 ovarian) of 11.1 nM and a TGI (NCI-H522 lung) of under 2.5 nM. For the same compound, the TGI (CCRF-CEM leukemia) was under 2.5 nM, the TGI (NCI/ADR-RES ovarian) was 110 nM and 50.7 nM and the TGI (U251 CNS) was 1110 nM. The TGI (K-562 leukemia) was 25000 nM, the TGI (KM12 colon) was 267 nM and 1120 nM and the TGI (SW-620 colon) was 25000 nM and 7750 nM. The TGI (HL-60(TB) leukemia) was under 2.5 nM, the TGI (MOLT-4 leukemia) was under 2.5 nM and the TGI (CAKI-1 renal) was under 2.5 nM. The TGI (RPMI-8226 leukemia) was 164 nM, the TGI (HOP-62 NSCLC) was 25000 nM and the TGI (SK-OV-3 ovarian) was 352 nM and 861 nM. The TGI (SK-MEL-5 melanoma) was 1040 nM, the TGI (HT29 colon) was 15400 nM and the TGI (UACC-62 melanoma) was under 2.5 nM. It also gave a TGI (SNB-75 CNS) of 5.27 nM, a TGI (HCT-116 colon) of 11000 nM and a TGI (OVCAR-3 ovarian) of 9.47 nM. It also gave a TGI (M14 melanoma) of 25000 nM, a TGI (SK-MEL-28 melanoma) of 6.78 nM and a TGI (SN12C renal) of 257 nM. The TGI (MCF7 breast) was 25000 nM, the TGI (SK-MEL-2 melanoma) was 25000 nM and the TGI (OVCAR-8 ovarian) was under 2.5 nM. It also gave a TGI (PC-3 prostate) of 25000 nM, a TGI (SF-295 CNS) of 388 nM and a TGI (NCI-H226 lung) of 250 nM. It also gave a TGI (COLO 205 colon) of 281 nM, a TGI (EKVX NSCLC) of 1150 nM and a TGI (NCI-H23 lung) of 5.58 nM. For the same compound, the TGI (SR leukemia) was under 2.5 nM, the TGI (HCT-15 colon) was 25000 nM and the TGI (A549 NSCLC) was 25000 nM. The TGI (SF-268 CNS) was over 100000 nM, the TGI (SNB-19 CNS) was 2860 nM and 13200 nM and the TGI (HCC-2998 colon) was under 2.5 nM. The TGI (OVCAR-5 ovarian) was 25000 nM.
